Consider three compounds from US12369584B2, “Fungicide mixtures” (LANXESS Deutschland GmbH, priority 2019, dated 2025).

Like-named read-outs stand apart in the source and are kept apart here.

As usually defined, the MIC is the lowest concentration found to suppress growth.

Common to all, as to experiment: MIC on nutrient agar and synergistic index (Kull)
Format in all cases: cell-based

For one experiment, the system named is Aureobasidium pullulans. An excerpt: (§1) The term synergism is used when the action of a combination of antimicrobial substances is being evaluated.
(§2) The synergism found for the mixtures according to the invention can be determined via the following mathematical formula (cf. F. C. Kull, P. C. Elisman, H. D. Sylwestrowicz and P. K. Mayer, Appl. Microbiol. 9, 538 (1961):
(§3) Qa=amount of component A in the active substance mixture which achieves the desired effect, i. e. no microbial growth,
(§4) QA=amount of component A which, when used alone, suppresses the growth of the microorganisms,
(§5) Qb=amount of component B in the active substance mixture which suppresses the growth of the microorganisms,
(§6) QB=amount of component B which, when used alone, suppresses the growth of the microorganisms
(§7) If the sum of the ratios for a mixture Qa/QA+Qb/QB=1, additivity is indicated; if it is <1, synergism has occurred; a value of >1 is indicative of antagonism.
(§8) To determine the antimicrobial efficacy and synergy of active ingredients mixtures, the Minimum Inhibitory Concentration (MIC) of the active substances and their respective combinations were determined. The Minimum Inhibitory Concentration of a given antimicrobial compound or mixture is the lowest concentration expressed in […] that under defined in vitro conditions inhibits the growth of a given micro-organism (for example bacteria, mould fungi, yeasts). The growth of the microorganisms is observed on petri dishes containing a defined nutrient agar.
(§9) The antimicrobial efficacy and synergy of combinations based on TBZ, PYM and FDL were determined.

The next experiment has as its system Paecilomyces variotii.
From the text: as §1, §2, §3, §4, §5, §6, §7, §8, §9

The test system of the next experiment is Stachybotris chartarum.
From the text: as §1, §2, §3, §4, §5, §6, §7, §8, §9

Another experiment relates to Chaetomium globosum.
From the text: as §1, §2, §3, §4, §5, §6, §7, §8, §9

A further experiment relates to Alternaria alternata.
From the text: as §1, §2, §3, §4, §5, §6, §7, §8, §9

The mark [1] stands for this setting: Stachybotris chartarum, nutrient agar, read-out: MIC.

On to `N#Cc1c[nH]cc1-c1cccc2c1OC(F)(F)O2` [FDL, fludioxonil], for which the MIC in the experiment with Aureobasidium pullulans was 1500 µg/mL; in the experiment with Paecilomyces variotii, 175 µg/mL; with Stachybotris chartarum, 5 µg/mL; in the experiment on Chaetomium globosum it was 1500 µg/mL; in the experiment with Alternaria alternata it was 5 µg/mL.
With `c1ccc2[nH]c(-c3cscn3)nc2c1` [TBZ, thiabendazole], the minimal inhibitory concentration (MIC) in the experiment on Aureobasidium pullulans (nutrient agar, read-out: MIC) turned out to be 5 µg/mL; in the experiment with Paecilomyces variotii (nutrient agar, read-out: MIC) it was 5 µg/mL; in the experiment on Stachybotris chartarum (setting [1]), 50 µg/mL; in the experiment on Chaetomium globosum (nutrient agar, read-out: MIC) it was 5 µg/mL; with Alternaria alternata (nutrient agar, read-out: MIC), 250 µg/mL.
With `Cc1cc(C)nc(Nc2ccccc2)n1` [PYM, pyrimethanil], the MIC turned out to be 175 µg/mL in the experiment on Aureobasidium pullulans (nutrient agar, read-out: MIC); 90 µg/mL in the experiment on Paecilomyces variotii (nutrient agar, read-out: MIC); 100 µg/mL with Stachybotris chartarum (setting [1]); 250 µg/mL with Chaetomium globosum (nutrient agar, read-out: MIC); 25 µg/mL with Alternaria alternata (nutrient agar, read-out: MIC).
